Laboratory results taken from patent US10031125B2, “Diagnosis and treatment of invasive aspergillosis” (THE BRIGHAM AND WOMEN'S HOSPITAL, INC., priority 2012, dated 2018).
Starred links: 1 amine or outer side, 2 acyl side, 3 side chain; linkers in the order of their positions; H or OH if unused. Positions of bridges follow the written chain, without caps; N, C: chain ends. Non-standard residues stand in square brackets, D forms with d. Residues, ends and D or L forms follow the SMILES beside them. *: point of attachment. hTyr(3S-OH,4S-OH,3'-OSO3H) = N[C@H](C(=O)O)[C@H](O)[C@@H](O)c1ccc(O)c(OS(=O)(=O)O)c1; Orn(4R-OH,5R-OH) = O=C([C@H](C[C@@H](O)[C@@H](O)N[*:3])N[*:1])[*:2]; Pro(3S-OH,4S-Me) = C[C@H]1CN[C@H](C(=O)O)[C@H]1O; X1 = CCCCCOc1ccc(-c2cc(-c3ccc(C(=O)*)cc3)no2)cc1; Gln(3R-OH) = NC(=O)C[C@@H](O)[C@H](N)C(=O)O; Hyp = O=C(O)[C@@H]1C[C@@H](O)CN1

Experiments:
A. terreus = settings: some isolates; Baddley et al., J. Clin. Microbiol. 2009; cited from earlier work
Aspergillus fumigatus = experiment: Antifungal exposure modulates the release of VOCs in A. fumigatus in vitro (headspace GC-MS); type: cell-based; settings: for change in key A. fumigatus VOC features at 24 hours: compared to matched control samples
Experimental: For each experiment, 10^4 conidia were inoculated into 5 mL of microbial media (either nutrient Yeast Extract Peptone Dextrose (YPD) broth, nutrient poor Aspergillus minimal media (Pontecorvo et al., Advan Genet 1953; 5:141-238), or under iron-starved, alkaline stress, or nitrogen-depleted conditions (McDonagh et al., PLoS Pathog 2008; 4:e1000154)) in 20 mL glass vials with an airtight crimp top incorporating a rubber septum. Cultures were incubated for 24-144 hours at 200 rpm and 37° C. and headspace gas was dynamically adsorbed, using argon carrier gas and an air sampling pump calibrated to 20 mL/minute, onto Markes thermal desorption traps containing tandem beds of Tenax TA (200 mg), Carbograph 1 TD (100 mg), and Carboxen 1003 (100 mg), optimized to retain VOCs of diverse size and polarity.
Headspace VOCs were also collected after exposure of a subset of fungal isolates to the antifungal drugs voriconazole, liposomal amphotericin B, and micafungin, each at a concentration of […].
VOCs were desorbed onto a dual GC-MS/DMS system (FIG. 1)—the eluent from the gas chromatograph was split between the MS, to allow identification of each compound, and the DMS, an extremely sensitive and selective gas detector that can be easily used as a point-of-care gas detection device, to determine the mobility pattern for each compound. The NIST MS Search 2.0 Library was used to identify VOCs in the total ion chromatogram (TIC) of the GC-MS data. Differences in spectral features of DMS output were visually distinguished between the positive ion spectra of A. fumigatus and A. terreus and principal component analysis (PCA) was used to evaluate the degree of class discrimination between these fungal species using algorithms in MATLAB (Version R2012a).
Whether exposure to antifungal drugs might modulate VOC release in Aspergillus fumigatus was assessed in vitro.

[1] = added to 48-hour hyphal cultures, after 24 hours, 1.0 mg/mL

SMILES | susceptibility of A. terreus isolates (A. terreus) | increase in some of the key A. fumigatus VOC features (Aspergillus fumigatus; added to 48-hour hyphal cultures, after 24 hours, compared to matched control samples without drug, 1.0 mg/mL) [fold] | change in key A. fumigatus VOC features at 24 hours (Aspergillus fumigatus; [1]) | key A. fumigatus VOC features with longer incubation (Aspergillus fumigatus; longer duration of incubation and hyphal death)
C[C@@H]1[C@H](O)[C@@H](C)/C=C/C=C/C=C/C=C/C=C/C=C/C=C/[C@H](O[C@@H]2O[C@H](C)[C@@H](O)[C@H](N)[C@@H]2O)C[C@@H]2O[C@](O)(C[C@@H](O)C[C@@H](O)[C@H](O)CC[C@@H](O)C[C@@H](O)CC(=O)O[C@H]1C)C[C@H](O)[C@H]2C(=O)O [AMB, amphotericin B] | resistant |  |  | 
CCCCCOc1ccc(-c2cc(-c3ccc(C(=O)N[C@H]4C[C@@H](O)[C@@H](O)NC(=O)[C@@H]5[C@@H](O)[C@@H](C)CN5C(=O)[C@H]([C@H](O)CC(N)=O)NC(=O)[C@H]([C@H](O)[C@@H](O)c5ccc(O)c(OS(=O)(=O)O)c5)NC(=O)[C@@H]5C[C@@H](O)CN5C(=O)[C@H]([C@@H](C)O)NC4=O)cc3)no2)cc1 [micafungin] (X1-[Orn(4R-OH,5R-OH)]T[Hyp][hTyr(3S-OH,4S-OH,3'-OSO3H)][Gln(3R-OH)][Pro(3S-OH,4S-Me)]; lactam 1-C) |  | ≤ 17 | initial increase | attenuation
C[C@@H](c1ncncc1F)[C@](O)(Cn1cncn1)c1ccc(F)cc1F [voriconazole] |  |  | near-complete attenuation | 
